{
  "source": "patent US8883718B2",
  "about": "“Treating cancer” (Theryte Limited, priority 2008, dated 2014)",
  "format_in_all_cases": "cell-based",
  "key": {"[1]": {"test_system": "H460 human non-small cell lung cancer cells", "assay": "clonogenic assay on H460 cells", "protocol": "The first experiments were carried out on cyc-[[…]] (THR 53, (SEQ ID NO: 9)), see FIG. 4. Whilst the 96 well assays described in Example 3 are suitable for initial screening of small amounts of peptide material the long incubation periods in dense culture do themselves compromise cell viability to some extent. […] In clonogenic assays, (previously described by Warenius et al Br J Cancer (2000) 83(8), 1048-1059) single cell suspensions of 100 cells are plated in plentiful volumes of 2 ml of Ham's F12 tissue culture medium supplemented with 10% FCS and incubated for 15, 20 or 25 days. A high percentage of the plated cells (40-60% in the case of H460) go through repeated doublings to yield colonies of 200 or more cells which can be easily visualized by the naked eye and counted under a low power lens when stained by giemsa stain.\nThe efficacy of THR53 was compared to Ac-PRGPRP-NH2 (SEQ ID NO: 2) using a clonogenic assay."}, "[2]": {"test_system": "Eleven human cancer cell lines covering a wide range of histologies", "assay": "eleven human cancer cell lines exposed to THR53 (morphology and clonogenic assays)", "settings": "200 μM", "protocol": "(§1) In a clinical context this might provide a biomarker of therapeutic efficacy. […] Such a homogeneous therapeutic response is in marked contrast to the wide range of variability in dose response of different cancer cell lines seen with conventional chemotherapeutic agents^24. Cancer cells both underwent successful mitosis and died (FIG. 3f) or died in interphase (FIG. 7d). […] MRC-hTERT fibroblasts (FIG. 7c) and short term cultures of normal diploid human keratinocytes (FIG. 3h) were not killed by 200 μM THR53."}, "[3]": {"test_system": "normal diploid human keratinocytes", "assay": "normal keratinocyte cultures exposed to THR53", "settings": "200 μM", "protocol": "FIGS. 7(g), (h), (i,) and (j) show established cultures of H460 human non-small cell lung cancer cells (i, j) and normal diploid human keratinocytes (g, h) in the presence and absence of THR53. 10^4 tumor or keratinocyte cells were plated in 2.5 cm diameter tissue culture wells and 5 days later vehicle (g, i) or 200 μM THR53 (SEQ ID NO: 9) (h, j) were added. Further incubation was carried out for 7 days.\nas §1"}, "[4]": {"test_system": "MRC-hTERT immortalized normal human fibroblasts", "assay": "MRC-hTERT fibroblasts exposed to THR53", "settings": "200 μM", "protocol": "FIGS. 7(c), (d) and (e) show time lapse photomicrographs of H460 human non-small cell lung cancer cells and MRC-hTERT immortalized normal human fibroblasts growing in tissue culture following exposure to 200 μM THR53 (SEQ ID NO: 9) (d, e) and untreated control H460 cells (c). Magnification ×10.\nas §1"}},
  "note": "Entries after “also recorded” stand apart in the source; their conditions may differ. Where a SMILES comes first, the peptide text is derived from it.",
  "data": [
    {"smiles": "CC(C)C[C@@H]1NC(=O)[C@H](C)NC(=O)[C@H](CC(C)C)NC(=O)[C@H](CCCCN)NC(=O)[C@H](C(C)C)NC(=O)[C@@H]2CCCN2C(=O)[C@H](CCCNC(=N)N)NC(=O)[C@@H]2CCCN2C(=O)CNC(=O)[C@H](CCCNC(=N)N)NC(=O)[C@@H]2CCCN2C(=O)[C@@H]2CCCN2C(=O)[C@H](Cc2ccccc2)NC(=O)[C@H](CCCCN)NC(=O)[C@H](CC(C)C)NC(=O)[C@H](C)NC(=O)[C@H](CC(C)C)NC(=O)[C@H](CCCCN)NC1=O", "note": "[THR53] (cyclo(ALKFPPRGPRPVKLALKL))", "values": [
      {"measurement": "lethality on H460 non-small cell lung cancer cells", "setting": "[1]; 100 uM, no colonies visible", "result": 100, "unit": "%"},
      {"measurement": "H460 cell survival in clonogenic assay", "setting": "[1]; drug concentrations 10 to 100 μM", "result": "significantly decreased"},
      {"measurement": "mode of cancer cell death", "setting": "[2]", "result": "no features of apoptosis"},
      {"measurement": "response / lethality in clonogenic assays", "setting": "[2]; 15 days after exposure, eleven human cancer cell lines", "result": "complete lethality; also recorded: complete response"},
      {"measurement": "killing of normal diploid human keratinocytes in short term culture", "setting": "[3]", "result": "not killed"},
      {"measurement": "killing of MRC-hTERT fibroblasts", "setting": "[4]", "result": "not killed"}
    ]}
  ]
}
